{
  "source": "patent US7531669B2",
  "about": "“Methods for treating neural disorders and conditions, and compounds useful therefor” (The Salk Institute for Biological Studies, priority 2003, dated 2009)",
  "key": {"[1]": {"tested_on": "HT22 cells and primary cortical neurons", "assay": "Cell death caused by glutamate in HT22 cells and primary cortical neurons", "assay_type": "cell-based"}, "HT22 cells": {"tested_on": "HT22 cells", "assay": "HT22 cell survival after glutamate in the CREB phosphorylation experiment", "assay_type": "cell-based", "details": "1 μM compound; all cells died in its absence", "method": "CREB phosphorylation in response to oxidative stress was evaluated in the presence of invention compounds. Glutamate was added to HT22 cells in the presence or absence of compound 11-001 (at 1 μM). […] Furthermore, all of the HT22 cells died in the absence of compound 11-001, and over 90% lived in the presence of compound 11-001."}, "JNK-3": {"target": "JNK-3 (Homo sapiens, UniProt P53779)", "sequence (P53779 whole entry, species assumed)": "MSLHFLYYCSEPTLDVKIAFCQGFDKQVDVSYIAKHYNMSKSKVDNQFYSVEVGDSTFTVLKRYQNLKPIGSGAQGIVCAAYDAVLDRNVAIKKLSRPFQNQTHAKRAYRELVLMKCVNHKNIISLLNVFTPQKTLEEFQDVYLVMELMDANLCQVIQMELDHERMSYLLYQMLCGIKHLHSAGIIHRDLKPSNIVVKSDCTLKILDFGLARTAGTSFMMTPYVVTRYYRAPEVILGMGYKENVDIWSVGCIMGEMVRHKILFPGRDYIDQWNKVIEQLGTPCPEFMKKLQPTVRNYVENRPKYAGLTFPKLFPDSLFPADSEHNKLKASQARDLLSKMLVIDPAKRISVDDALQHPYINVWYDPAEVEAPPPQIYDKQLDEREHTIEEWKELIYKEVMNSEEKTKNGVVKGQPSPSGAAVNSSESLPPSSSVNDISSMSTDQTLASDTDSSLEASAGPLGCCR", "assay": "Protein kinase panel screen: JNK-3", "assay_type": "biochemical", "source_text": "(§1) A panel of 14 protein kinases was screened against compound 11-001. […] The phosphorylation of the other tested kinases was not altered."}, "p38": {"tested_on": "p38", "assay": "p38 phosphorylation caused by glutamate in cells", "assay_type": "cell-based", "details": "HT22 cells and primary cortical neurons", "source_text": "as §1"}, "JNK-2": {"target": "JNK-2 (Homo sapiens, UniProt P45984)", "sequence (P45984 whole entry, species assumed)": "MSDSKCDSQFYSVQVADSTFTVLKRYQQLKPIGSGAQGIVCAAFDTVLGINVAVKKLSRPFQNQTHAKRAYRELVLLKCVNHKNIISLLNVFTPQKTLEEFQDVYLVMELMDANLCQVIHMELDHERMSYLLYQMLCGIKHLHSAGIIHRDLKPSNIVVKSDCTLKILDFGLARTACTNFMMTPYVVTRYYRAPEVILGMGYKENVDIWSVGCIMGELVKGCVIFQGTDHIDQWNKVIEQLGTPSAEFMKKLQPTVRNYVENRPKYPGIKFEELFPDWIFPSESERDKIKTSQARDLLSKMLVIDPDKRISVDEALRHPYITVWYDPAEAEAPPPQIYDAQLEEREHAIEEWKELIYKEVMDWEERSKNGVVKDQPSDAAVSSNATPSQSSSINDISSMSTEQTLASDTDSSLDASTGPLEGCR", "assay": "Protein kinase panel screen: JNK-2", "assay_type": "biochemical", "source_text": "as §1"}, "JNK": {"tested_on": "JNK", "assay": "JNK phosphorylation caused by glutamate in cells", "assay_type": "cell-based", "details": "HT22 cells and primary cortical neurons", "source_text": "as §1"}, "[2]": {"assay": "Plasma concentration after a single oral dose in mice", "assay_type": "in vivo, BALB/c mice", "details": "for Plasma 11-001 concentration: 400 mg/kg single oral dose", "method": "The pharmacokinetic properties of compound 11-001 (see FIG. 14) after a single oral dose were studied in 10-week old female BALB/c mice. Compound 11-001 was emulsified in 2.5% carboxymethyl cellulose at a concentration of 20 mg/ml and administered by gavage at a dosage of 400 mg/kg body weight (administered volume was 20 ml/kg body weight). The mice were then sacrificed at various intervals after administration (0, 1 hr, 2 hr, 4 hr, and 6 hr). Plasma was obtained from blood (mixed with K3EDTA to prevent coagulation) by centrifugation at 4,300 g for 10 min, extracted twice with ethyl acetate/propanol (9:1, v/v). The extracts were centrifuged at 5,000 g for 10 min to form aqueous/organic layers. The organic layer containing compound 11-001 was centrifuged at 20,000 g for 10 min to sediment particles. The extraction recovery from plasma was approximately 90%. Thirty μl thereof were analyzed by HPLC equipped with a C18 reversed phase column and compound 11-001 was detected at 330 nm. The elution solvent system was 50% acetonitrile, 50% water and 1 g/L trifluoroacetic acid with a flow rate of 1 ml/min."}, "[3]": {"assay": "Brain content after a single oral dose in mice", "assay_type": "in vivo, BALB/c mice", "details": "for Brain 11-001 content: 400 mg/kg single oral dose", "method": "To study the distribution of compound 11-001 in brain at various time intervals (0, 1 hr, 2 hr, 4 hr, and 6 hr) after gavage (400 mg/kg), the mice were anesthetized with cloral hydrate and perfused through the heart with phosphate buffered saline (PBS) to remove blood in the brain. The mice were then decapitated, the brains removed, and quickly frozen and stored at −80° C. before further analysis. To measure the level of compound 11-001 in the brain, weighed brain pieces were homogenized by sonication in 3 volumes of PBS. The homogenates were then extracted and measured by HPLC as described above."}, "JNK-1": {"target": "JNK-1 (Homo sapiens, UniProt P45983)", "sequence (P45983 whole entry, species assumed)": "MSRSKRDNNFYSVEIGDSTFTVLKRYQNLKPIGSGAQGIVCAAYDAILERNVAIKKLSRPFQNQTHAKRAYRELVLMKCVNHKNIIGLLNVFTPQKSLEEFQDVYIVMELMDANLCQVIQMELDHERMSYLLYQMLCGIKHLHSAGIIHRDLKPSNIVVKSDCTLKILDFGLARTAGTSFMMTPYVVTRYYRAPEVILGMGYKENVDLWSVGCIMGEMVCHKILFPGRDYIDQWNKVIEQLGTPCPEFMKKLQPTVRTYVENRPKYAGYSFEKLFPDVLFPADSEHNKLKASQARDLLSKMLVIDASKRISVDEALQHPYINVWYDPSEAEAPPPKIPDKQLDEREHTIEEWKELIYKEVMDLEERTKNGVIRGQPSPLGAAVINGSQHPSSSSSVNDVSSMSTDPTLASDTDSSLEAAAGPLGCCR", "assay": "Protein kinase panel screen: JNK-1", "assay_type": "biochemical", "source_text": "as §1"}, "[4]": {"tested_on": "rat primary cortical neurons", "assay": "Neuroprotective activity, rat primary cortical neurons cultured in serum-containing or serum-free medium", "assay_type": "cell-based", "method": "Primary cortical neurons are prepared from 18-day-old embryos of Sprague-Dawley rats as described (Liu and Schubert J. Neurochem. 69, 2285-2293 (1997) and J. Neurochem. 71, 2322-2329 (1998)). Briefly, the cerebral cortex is dissected out under an anatomical microscope and is freed of meninges and blood vessels. The cortex is cut into small pieces and is then dissociated by trypsin digestion and passed through a pipette tip. Dissociated neurons are suspended in various media and plated on polylysine-coated 35 mm tissue culture dishes (1×10^6 cells/dish). Several different culture conditions were used. Invention compounds were added to cell culture dishes. Cell survival was measure 2-7 days after compound administration.\nThe following serum-containing medium was used: minimal essential medium (Sigma) containing 30 mM glucose, 2 mM glutamine, 1 mM pyruvate, penicillin (100 U/ml), streptomycin (100 μg/ml), and 10% fetal calf serum. At a plating density of 1×10^6 cells/dish, most neurons die after one week of culture in this medium. If plated at a density of 2×10^6 cells/dish, then most neurons survive. Glia proliferate in this medium regardless of the initial cell density. Therefore the cell density-dependent neuronal survival in this system is most likely dependent on the neurotrophic factors secreted by the neurons, not by the glia. The results are the same when glial proliferation is inhibited by cytosine arabinoside.\nA serum-free medium containing DMEM/F-12 plus N2 supplements (Invitrogen). When plated at a density of 1×10^6 cells/dish, almost all neurons die within three days. The cell death mechanisms in this culture medium are most likely to be oxidative stress and trophic factor deficiency.\nA number of compounds according to the present invention were synthesized (using standard synthetic techniques) to explore the structure-activity relationships. The structures of exemplary invention compounds tested are provided herein. The structure-activity relationships of various compounds according to the present invention with rat primary cortical neurons cultured in serum-containing or serum-free medium are set forth in Table 1."}},
  "data": [
    {"smiles": "COc1cc(/C=C/c2cc(/C=C/c3ccc(O)c(OC)c3)n(-c3ccccc3)n2)ccc1O", "note": "[Compound 11-001]", "values": [
      {"measurement": "Effect on cell death", "setting": "[1]", "value": "inhibited cell death"},
      {"measurement": "HT22 cells that lived after glutamate", "setting": "HT22 cells", "value": "over 90%"},
      {"measurement": "Inhibition of kinase in panel of 14 protein kinases", "setting": "JNK-3", "value": "partially inhibited"},
      {"measurement": "Block of p38 phosphorylation caused by glutamate", "setting": "p38", "value": "about 30%"},
      {"measurement": "Inhibition of kinase in panel of 14 protein kinases", "setting": "JNK-2", "value": "None of the other enzymes that were assayed, including JNK-1 or JNK-2, were affected"},
      {"measurement": "Block of JNK phosphorylation caused by glutamate", "setting": "JNK", "value": "about 30%"},
      {"measurement": "Plasma 11-001 concentration", "setting": "[2]; 0 hr after gavage", "value": 0, "unit": "µg/mL"},
      {"measurement": "Time of maximum plasma concentration", "setting": "[2]; 400 mg/kg by gavage", "value": "around 2 hr"},
      {"measurement": "Plasma 11-001 concentration", "setting": "[2]; 1 hr after gavage", "value": 1.84, "unit": "µg/mL"},
      {"measurement": "Plasma 11-001 concentration", "setting": "[2]; 2 hr after gavage", "value": 2.30, "unit": "µg/mL"},
      {"measurement": "Plasma 11-001 concentration", "setting": "[2]; 4 hr after gavage", "value": 1.25, "unit": "µg/mL"},
      {"measurement": "Plasma 11-001 concentration", "setting": "[2]; 6 hr after gavage", "value": 0.67, "unit": "µg/mL"},
      {"measurement": "Brain 11-001 content", "setting": "[3]; 0 hr after gavage", "value": 0, "unit": "μg/g brain"},
      {"measurement": "Time of maximum brain concentration", "setting": "[3]; 400 mg/kg by gavage", "value": 1, "unit": "h"},
      {"measurement": "Oral absorption and passage of the blood-brain barrier", "setting": "[3]; 400 mg/kg by gavage, mice", "value": "can be orally absorbed and traverse the blood-brain barrier"},
      {"measurement": "Brain 11-001 content", "setting": "[3]; 1 hr after gavage", "value": 2.62, "unit": "μg/g brain"},
      {"measurement": "Brain 11-001 content", "setting": "[3]; 2 hr after gavage", "value": 1.28, "unit": "μg/g brain"},
      {"measurement": "Brain 11-001 content", "setting": "[3]; 4 hr after gavage", "value": 0.89, "unit": "μg/g brain"},
      {"measurement": "Brain 11-001 content", "setting": "[3]; 6 hr after gavage", "value": 0.95, "unit": "μg/g brain"},
      {"measurement": "Inhibition of kinase in panel of 14 protein kinases", "setting": "JNK-1", "value": "None of the other enzymes that were assayed, including JNK-1 or JNK-2, were affected"}
    ]},
    {"smiles": "C(=C\\c1cc(/C=C/c2ccccc2)n(-c2ccccc2)n1)/c1ccccc1", "note": "[Compound 22-020]", "values": [
      {"measurement": "Neuroprotective activity at 1 μM", "setting": "[4]", "value": 0}
    ]},
    {"smiles": "COc1ccc(/C=C/c2cc(/C=C/c3ccc(OC)cc3)n(-c3ccccc3)n2)cc1", "note": "[Compound 22-022]", "values": [
      {"measurement": "Neuroprotective activity at 1 μM", "setting": "[4]", "value": 0}
    ]},
    {"smiles": "COc1cccc(/C=C/c2cc(/C=C/c3cccc(OC)c3)n(-c3ccccc3)n2)c1", "note": "[Compound 22-024]", "values": [
      {"measurement": "Neuroprotective activity at 1 μM", "setting": "[4]", "value": 0}
    ]},
    {"smiles": "COc1ccc(/C=C/c2cc(/C=C/c3ccc(OC)c(OC)c3)n(-c3ccccc3)n2)cc1OC", "note": "[Compound 22-026]", "values": [
      {"measurement": "Neuroprotective activity at 1 μM", "setting": "[4]", "value": 0}
    ]}
  ]
}
